{"source": "the kinase profiling compilation of Christmann-Franck et al. (2016)", "test_in_all_cases": "KINOMEscan competition binding", "settings_in_all_cases": "compound 1.0 µM", "key": {"[1]": {"biological_target": "ULK1 (human) (UniProt O75385)", "sequence (O75385 whole entry, looked up)": "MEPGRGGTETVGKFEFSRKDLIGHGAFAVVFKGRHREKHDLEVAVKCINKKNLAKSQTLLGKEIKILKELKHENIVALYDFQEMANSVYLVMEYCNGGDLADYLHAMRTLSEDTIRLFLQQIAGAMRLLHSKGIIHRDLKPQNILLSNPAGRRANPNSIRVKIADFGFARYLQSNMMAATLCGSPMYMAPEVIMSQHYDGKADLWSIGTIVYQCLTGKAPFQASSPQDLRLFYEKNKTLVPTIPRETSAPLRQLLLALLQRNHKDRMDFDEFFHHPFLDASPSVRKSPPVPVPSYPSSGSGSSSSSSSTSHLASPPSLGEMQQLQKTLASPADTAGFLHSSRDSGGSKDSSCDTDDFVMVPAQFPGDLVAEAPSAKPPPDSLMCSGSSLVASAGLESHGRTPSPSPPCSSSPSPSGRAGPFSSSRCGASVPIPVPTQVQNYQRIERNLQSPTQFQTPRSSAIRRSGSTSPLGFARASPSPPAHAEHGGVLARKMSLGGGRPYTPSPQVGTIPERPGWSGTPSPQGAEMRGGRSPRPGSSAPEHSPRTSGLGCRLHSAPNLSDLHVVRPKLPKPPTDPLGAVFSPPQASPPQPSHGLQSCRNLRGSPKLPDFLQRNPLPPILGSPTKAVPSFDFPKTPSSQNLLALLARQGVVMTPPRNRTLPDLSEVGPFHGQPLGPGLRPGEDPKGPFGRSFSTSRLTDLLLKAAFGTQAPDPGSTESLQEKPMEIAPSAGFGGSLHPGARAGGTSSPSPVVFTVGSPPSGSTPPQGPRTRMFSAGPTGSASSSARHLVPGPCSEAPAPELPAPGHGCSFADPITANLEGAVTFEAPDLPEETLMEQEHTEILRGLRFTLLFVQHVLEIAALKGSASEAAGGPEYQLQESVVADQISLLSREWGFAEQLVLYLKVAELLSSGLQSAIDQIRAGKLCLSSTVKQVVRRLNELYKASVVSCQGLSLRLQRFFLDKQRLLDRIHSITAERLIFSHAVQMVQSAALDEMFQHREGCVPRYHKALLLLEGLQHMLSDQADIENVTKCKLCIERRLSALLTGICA"}, "[2]": {"tested_on": "EIF2AK4 KD2 (human), Q9P2K8 [S808G]"}, "[3]": {"biological_target": "EPHB3 (human) (UniProt P54753)"}, "[4]": {"biological_target": "PIM2 (human) (UniProt Q9P1W9)"}, "[5]": {"biological_target": "DDR2 (human) (UniProt Q16832)"}, "[6]": {"biological_target": "CDK18 (human) (UniProt Q07002)"}, "[7]": {"biological_target": "ACVR2B (human) (UniProt Q13705)"}, "[8]": {"biological_target": "BRSK1 (human) (UniProt Q8TDC3)"}, "[9]": {"biological_target": "TNK2 (human) (UniProt Q07912)"}, "[10]": {"biological_target": "MYLK2 (human) (UniProt Q9H1R3)"}, "[11]": {"biological_target": "MATK (human) (UniProt P42679)"}, "[12]": {"tested_on": "EGFR (human), P00533 [752-759 del]"}, "[13]": {"biological_target": "OXSR1 (human) (UniProt O95747)"}, "[14]": {"biological_target": "CIT (human) (UniProt O14578)"}, "[15]": {"biological_target": "TLK2 (human) (UniProt Q86UE8)", "sequence (Q86UE8 whole entry, looked up)": "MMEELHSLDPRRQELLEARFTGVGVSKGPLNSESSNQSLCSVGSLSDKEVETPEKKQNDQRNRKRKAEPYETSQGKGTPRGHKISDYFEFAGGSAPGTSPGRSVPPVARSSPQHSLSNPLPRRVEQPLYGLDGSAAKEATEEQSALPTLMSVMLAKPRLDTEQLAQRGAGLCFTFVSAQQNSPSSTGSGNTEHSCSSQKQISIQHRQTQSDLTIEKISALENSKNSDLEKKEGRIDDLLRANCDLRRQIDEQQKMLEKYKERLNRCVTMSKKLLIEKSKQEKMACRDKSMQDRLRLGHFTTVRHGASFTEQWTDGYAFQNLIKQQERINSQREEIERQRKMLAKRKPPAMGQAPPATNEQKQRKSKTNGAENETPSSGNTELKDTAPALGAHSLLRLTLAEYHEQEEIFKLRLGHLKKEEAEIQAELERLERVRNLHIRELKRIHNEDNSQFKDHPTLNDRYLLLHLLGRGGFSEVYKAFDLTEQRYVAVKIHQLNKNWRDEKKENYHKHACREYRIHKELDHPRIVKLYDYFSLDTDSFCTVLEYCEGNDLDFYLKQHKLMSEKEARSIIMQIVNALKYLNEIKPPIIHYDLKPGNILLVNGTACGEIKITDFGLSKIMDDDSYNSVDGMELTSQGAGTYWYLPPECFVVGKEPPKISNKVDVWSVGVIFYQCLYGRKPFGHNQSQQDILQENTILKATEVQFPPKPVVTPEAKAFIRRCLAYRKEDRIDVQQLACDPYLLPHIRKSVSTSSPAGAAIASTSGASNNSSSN"}, "[16]": {"biological_target": "DYRK1B (human) (UniProt Q9Y463)"}, "[17]": {"biological_target": "FGFR1 (human) (UniProt P11362)"}, "[18]": {"biological_target": "NUAK2 (human) (UniProt Q9H093)"}, "[19]": {"biological_target": "ALK (human) (UniProt Q9UM73)"}, "[20]": {"biological_target": "MAP2K5 (human) (UniProt Q13163)"}, "[21]": {"biological_target": "CDKL5 (human) (UniProt O76039)"}, "[22]": {"biological_target": "CDK2 (human) (UniProt P24941)"}, "[23]": {"biological_target": "DCLK2 (human) (UniProt Q8N568)"}, "[24]": {"biological_target": "LYN (human) (UniProt P07948)", "sequence (P07948 whole entry, looked up)": "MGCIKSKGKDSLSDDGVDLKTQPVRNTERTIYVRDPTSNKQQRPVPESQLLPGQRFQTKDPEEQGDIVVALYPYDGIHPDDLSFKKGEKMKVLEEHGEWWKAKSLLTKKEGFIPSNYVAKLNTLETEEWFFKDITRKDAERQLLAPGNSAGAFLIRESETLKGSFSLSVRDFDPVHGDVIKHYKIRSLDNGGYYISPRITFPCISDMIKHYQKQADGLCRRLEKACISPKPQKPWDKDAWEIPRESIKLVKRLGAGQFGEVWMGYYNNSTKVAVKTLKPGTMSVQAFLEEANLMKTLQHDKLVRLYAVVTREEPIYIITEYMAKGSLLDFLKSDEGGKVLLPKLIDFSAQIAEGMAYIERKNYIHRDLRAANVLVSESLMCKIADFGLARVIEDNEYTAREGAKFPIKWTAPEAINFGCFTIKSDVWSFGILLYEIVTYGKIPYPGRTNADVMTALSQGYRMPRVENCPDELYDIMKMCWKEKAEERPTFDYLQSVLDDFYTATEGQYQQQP"}, "[25]": {"biological_target": "PIK3CG (human) (UniProt P48736)", "sequence (P48736 whole entry, looked up)": "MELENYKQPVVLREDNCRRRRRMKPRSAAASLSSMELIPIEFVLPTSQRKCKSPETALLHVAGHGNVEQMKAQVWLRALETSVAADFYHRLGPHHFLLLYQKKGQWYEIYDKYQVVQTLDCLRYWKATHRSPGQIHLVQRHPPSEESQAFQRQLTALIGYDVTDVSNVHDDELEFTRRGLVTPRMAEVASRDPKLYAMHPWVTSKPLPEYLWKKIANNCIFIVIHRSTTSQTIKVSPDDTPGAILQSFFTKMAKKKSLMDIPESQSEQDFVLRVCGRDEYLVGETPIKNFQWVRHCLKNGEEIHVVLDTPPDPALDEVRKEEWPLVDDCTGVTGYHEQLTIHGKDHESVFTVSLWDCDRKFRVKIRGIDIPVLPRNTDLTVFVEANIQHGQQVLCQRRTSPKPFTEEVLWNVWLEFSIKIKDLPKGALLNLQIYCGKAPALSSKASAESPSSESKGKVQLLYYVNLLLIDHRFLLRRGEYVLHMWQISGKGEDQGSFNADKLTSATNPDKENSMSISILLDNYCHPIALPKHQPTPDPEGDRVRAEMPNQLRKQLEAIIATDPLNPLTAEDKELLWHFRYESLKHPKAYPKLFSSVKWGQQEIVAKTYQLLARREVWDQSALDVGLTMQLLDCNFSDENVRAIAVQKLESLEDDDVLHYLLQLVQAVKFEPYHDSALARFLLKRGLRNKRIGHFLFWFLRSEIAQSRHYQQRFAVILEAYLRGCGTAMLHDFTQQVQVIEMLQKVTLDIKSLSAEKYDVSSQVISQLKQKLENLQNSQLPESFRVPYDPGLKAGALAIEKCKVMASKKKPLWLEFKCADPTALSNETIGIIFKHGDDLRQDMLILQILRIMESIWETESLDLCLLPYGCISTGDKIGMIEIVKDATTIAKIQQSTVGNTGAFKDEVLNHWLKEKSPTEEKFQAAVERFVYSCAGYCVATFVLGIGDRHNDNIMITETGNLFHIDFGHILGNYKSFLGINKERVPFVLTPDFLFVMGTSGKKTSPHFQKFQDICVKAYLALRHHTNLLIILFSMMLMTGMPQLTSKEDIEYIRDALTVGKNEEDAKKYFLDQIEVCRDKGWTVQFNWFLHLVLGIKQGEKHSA"}, "[26]": {"biological_target": "LATS1 (human) (UniProt O95835)", "sequence (O95835 whole entry, looked up)": "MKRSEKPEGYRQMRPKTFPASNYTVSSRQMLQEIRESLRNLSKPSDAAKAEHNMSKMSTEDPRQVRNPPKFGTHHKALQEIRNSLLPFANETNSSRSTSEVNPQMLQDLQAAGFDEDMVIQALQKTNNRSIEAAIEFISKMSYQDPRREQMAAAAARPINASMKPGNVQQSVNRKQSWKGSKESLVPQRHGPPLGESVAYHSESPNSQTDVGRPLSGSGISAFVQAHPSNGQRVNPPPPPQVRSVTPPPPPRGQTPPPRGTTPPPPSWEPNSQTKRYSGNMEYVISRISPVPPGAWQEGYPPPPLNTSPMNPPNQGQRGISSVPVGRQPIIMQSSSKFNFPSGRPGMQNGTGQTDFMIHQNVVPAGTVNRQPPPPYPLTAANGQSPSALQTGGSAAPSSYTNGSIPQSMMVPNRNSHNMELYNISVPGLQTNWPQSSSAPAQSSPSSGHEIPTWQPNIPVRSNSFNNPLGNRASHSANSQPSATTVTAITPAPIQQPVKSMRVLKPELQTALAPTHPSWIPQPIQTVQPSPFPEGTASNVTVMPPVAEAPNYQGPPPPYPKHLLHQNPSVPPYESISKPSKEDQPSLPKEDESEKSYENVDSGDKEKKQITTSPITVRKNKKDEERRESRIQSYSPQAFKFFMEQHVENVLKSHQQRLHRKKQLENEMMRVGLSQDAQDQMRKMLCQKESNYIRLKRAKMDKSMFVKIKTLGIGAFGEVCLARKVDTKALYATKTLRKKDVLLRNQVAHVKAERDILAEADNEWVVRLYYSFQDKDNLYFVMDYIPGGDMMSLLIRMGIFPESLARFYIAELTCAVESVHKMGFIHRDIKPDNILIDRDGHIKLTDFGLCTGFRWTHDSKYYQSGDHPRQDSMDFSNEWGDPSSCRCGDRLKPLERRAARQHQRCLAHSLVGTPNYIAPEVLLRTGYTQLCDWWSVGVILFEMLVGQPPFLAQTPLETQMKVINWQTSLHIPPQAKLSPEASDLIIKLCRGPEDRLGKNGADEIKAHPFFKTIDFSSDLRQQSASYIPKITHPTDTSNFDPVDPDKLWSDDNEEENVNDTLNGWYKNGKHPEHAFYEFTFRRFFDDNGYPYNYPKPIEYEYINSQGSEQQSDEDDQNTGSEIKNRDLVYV"}, "[27]": {"biological_target": "BMP2K (human) (UniProt Q9NSY1)"}, "[28]": {"tested_on": "PIK3CA (human), P42336 [H1047Y]"}, "[29]": {"biological_target": "NEK2 (human) (UniProt P51955)"}, "[30]": {"biological_target": "AKT2 (human) (UniProt P31751)"}, "[31]": {"biological_target": "JAK2 JH1 catalytic (human) (UniProt O60674)"}, "[32]": {"biological_target": "MAPK11 (human) (UniProt Q15759)"}, "[33]": {"biological_target": "STK36 (human) (UniProt Q9NRP7)"}, "[34]": {"biological_target": "LIMK2 (human) (UniProt P53671)"}, "[35]": {"biological_target": "AKT3 (human) (UniProt Q9Y243)"}, "[36]": {"biological_target": "MINK1 (human) (UniProt Q8N4C8)"}, "[37]": {"biological_target": "SBK1 (human) (UniProt Q52WX2)", "sequence (Q52WX2 whole entry, looked up)": "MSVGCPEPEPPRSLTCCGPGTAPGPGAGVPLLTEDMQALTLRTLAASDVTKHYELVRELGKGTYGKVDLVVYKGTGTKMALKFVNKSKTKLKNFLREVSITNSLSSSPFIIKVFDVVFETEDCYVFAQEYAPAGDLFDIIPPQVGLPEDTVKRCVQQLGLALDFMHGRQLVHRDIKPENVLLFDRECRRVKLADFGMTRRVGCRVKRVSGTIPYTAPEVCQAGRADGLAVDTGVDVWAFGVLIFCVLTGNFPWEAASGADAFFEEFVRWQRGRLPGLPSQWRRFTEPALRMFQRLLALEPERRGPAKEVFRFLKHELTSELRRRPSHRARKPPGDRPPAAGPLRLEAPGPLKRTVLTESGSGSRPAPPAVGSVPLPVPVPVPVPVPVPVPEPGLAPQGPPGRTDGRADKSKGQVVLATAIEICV"}, "[38]": {"biological_target": "PLK1 (human) (UniProt P53350)"}, "[39]": {"biological_target": "SIK2 (human) (UniProt Q9H0K1)"}, "[40]": {"biological_target": "BTK (human) (UniProt Q06187)"}, "[41]": {"biological_target": "DYRK1A (human) (UniProt Q13627)"}, "[42]": {"biological_target": "MAPK10 (human) (UniProt P53779)"}}}
{"smiles": "CN(C)C/C=C/C(=O)Nc1cccc(C(=O)Nc2ccc(Nc3nccc(/C(C#N)=C4\\Nc5ccccc5S4)n3)cc2)c1", "values": [{"measurement": "kinase still bound, per cent of control", "setting": "[1]", "value": 92, "unit": "%"}, {"measurement": "kinase still bound, per cent of control", "setting": "[2]", "value": 55, "unit": "%"}, {"measurement": "kinase still bound, per cent of control", "setting": "[3]", "value": 95, "unit": "%"}, {"measurement": "kinase still bound, per cent of control", "setting": "[4]", "value": 51, "unit": "%"}, {"measurement": "kinase still bound, per cent of control", "setting": "[5]", "value": 100, "unit": "%"}, {"measurement": "kinase still bound, per cent of control", "setting": "[6]", "value": 100, "unit": "%"}, {"measurement": "kinase still bound, per cent of control", "setting": "[7]", "value": 100, "unit": "%"}, {"measurement": "kinase still bound, per cent of control", "setting": "[8]", "value": 90, "unit": "%"}, {"measurement": "kinase still bound, per cent of control", "setting": "[9]", "value": 70, "unit": "%"}, {"measurement": "kinase still bound, per cent of control", "setting": "[10]", "value": 100, "unit": "%"}, {"measurement": "kinase still bound, per cent of control", "setting": "[11]", "value": 100, "unit": "%"}, {"measurement": "kinase still bound, per cent of control", "setting": "[12]", "value": 95, "unit": "%"}, {"measurement": "kinase still bound, per cent of control", "setting": "[13]", "value": 100, "unit": "%"}, {"measurement": "kinase still bound, per cent of control", "setting": "[14]", "value": 65, "unit": "%"}, {"measurement": "kinase still bound, per cent of control", "setting": "[15]", "value": 100, "unit": "%"}, {"measurement": "kinase still bound, per cent of control", "setting": "[16]", "value": 66, "unit": "%"}, {"measurement": "kinase still bound, per cent of control", "setting": "[17]", "value": 100, "unit": "%"}, {"measurement": "kinase still bound, per cent of control", "setting": "[18]", "value": 100, "unit": "%"}, {"measurement": "kinase still bound, per cent of control", "setting": "[19]", "value": 100, "unit": "%"}, {"measurement": "kinase still bound, per cent of control", "setting": "[20]", "value": 100, "unit": "%"}, {"measurement": "kinase still bound, per cent of control", "setting": "[21]", "value": 21, "unit": "%"}, {"measurement": "kinase still bound, per cent of control", "setting": "[22]", "value": 100, "unit": "%"}, {"measurement": "kinase still bound, per cent of control", "setting": "[23]", "value": 100, "unit": "%"}, {"measurement": "kinase still bound, per cent of control", "setting": "[24]", "value": 94, "unit": "%"}, {"measurement": "kinase still bound, per cent of control", "setting": "[25]", "value": 51, "unit": "%"}, {"measurement": "kinase still bound, per cent of control", "setting": "[26]", "value": 89, "unit": "%"}, {"measurement": "kinase still bound, per cent of control", "setting": "[27]", "value": 51, "unit": "%"}, {"measurement": "kinase still bound, per cent of control", "setting": "[28]", "value": 100, "unit": "%"}, {"measurement": "kinase still bound, per cent of control", "setting": "[29]", "value": 99, "unit": "%"}, {"measurement": "kinase still bound, per cent of control", "setting": "[30]", "value": 100, "unit": "%"}, {"measurement": "kinase still bound, per cent of control", "setting": "[31]", "value": 100, "unit": "%"}, {"measurement": "kinase still bound, per cent of control", "setting": "[32]", "value": 100, "unit": "%"}, {"measurement": "kinase still bound, per cent of control", "setting": "[33]", "value": 95, "unit": "%"}, {"measurement": "kinase still bound, per cent of control", "setting": "[34]", "value": 97, "unit": "%"}, {"measurement": "kinase still bound, per cent of control", "setting": "[35]", "value": 100, "unit": "%"}, {"measurement": "kinase still bound, per cent of control", "setting": "[36]", "value": 100, "unit": "%"}, {"measurement": "kinase still bound, per cent of control", "setting": "[37]", "value": 100, "unit": "%"}, {"measurement": "kinase still bound, per cent of control", "setting": "[38]", "value": 96, "unit": "%"}, {"measurement": "kinase still bound, per cent of control", "setting": "[39]", "value": 100, "unit": "%"}, {"measurement": "kinase still bound, per cent of control", "setting": "[40]", "value": 76, "unit": "%"}, {"measurement": "kinase still bound, per cent of control", "setting": "[41]", "value": 87, "unit": "%"}, {"measurement": "kinase still bound, per cent of control", "setting": "[42]", "value": 0.05, "unit": "%"}]}
